Assay [1] deals with hepatocellular carcinoma. To be noted: HCC patients; literature; cited from earlier work.
The test system of assay [2] is primary lymphatic cells. Put plainly: VEGFC- and VEGFD-induced proliferation of primary lymphatic cells. Conditions: read-out: IC50, inhibition of VEGFC- and VEGFD-induced proliferation. The format is cell-based.
For assay [3], the system named is 85 different kinases and 107 receptors, enzymes and ion channels. Briefly: selectivity versus other kinases, receptors, enzymes and ion channels.
In assay [4] the test system is HepG2 cell line orthotopic xenograft. Put plainly: HepG2 cell line orthotopic xenograft model (murine hepatocarcinoma xenograft). Type of assay: in vivo, SCID mice. To be noted: 100 mg/kg once a day. On the procedure: The in vivo anti-tumor efficacy of the compound of Example 1 in HepG2 cell line orthotopic xenograft model was evaluated. The HepG2 cells were injected into liver of SCID mice (obtained from ATCC) and mice were randomized into 2 groups 14 days post cell injection: a control group treated with vehicle and the compound of Example 1-treated group. Treatment was performed once a day at 100 mg/kg in methyl cellulose tween as vehicle.
The tumor size was measured by weighting the left lobe with the tumor at day 28. […] Normal liver lobe was also measured and deduced from the lobe of tumor bearing mice. […] (See FIG. 1).

Assay [5] concerns DEN-induced hepatocarcinoma. Briefly: DEN chemical-induced hepatocarcinoma in mice. Type of assay: in vivo, male C3H mice. On the procedure:
DEN (N-diethynitrosamine)-induced mouse model has been validated as a representative model for human HCC Wu et al. J. Cancer Res. Clin. Oncol. (2009) 135. 969-981; Chuang et al. Carcinogenesis (2000) 21; 331-335).
Tumor initiation was achieved by a single intra peritoneal injection of 10 mg/kg of N-diethylnitrosamine (DEN) in male C3H mice (Charles river laboratories France) at the age of 5 weeks.
Mice developed tumors in the liver from the 7th month post DEN administration but the incidence reached 100% at the 12th month. The compound of Example 1 was daily administrated P.O. (orally) after suspension in methyl cellulose tween, between the 10th and 12th month after DEN administration.
The body weight was evaluated each week during treatment and on the 12th months. Mice were killed by overdose of sodium pentobarbital, and livers were removed and weighted. The number of tumors per liver was counted and the tumor volume was measured with calipers. The tumor volume V was calculated using formula V=0.52×a^2×b, where “a” represents the smallest tumor diameter and “b” the largest tumor diameter.

Assay [6] deals with VEGFR-3 (Homo sapiens, UniProt P35916). Conditions: disclosed in the '145 application; read-out: IC50, inhibition of recombinant VEGFR-3 TK activity and autophosphorylation in HEK cells; cited from earlier work.
Chain of VEGFR-3 (P35916 25-1363): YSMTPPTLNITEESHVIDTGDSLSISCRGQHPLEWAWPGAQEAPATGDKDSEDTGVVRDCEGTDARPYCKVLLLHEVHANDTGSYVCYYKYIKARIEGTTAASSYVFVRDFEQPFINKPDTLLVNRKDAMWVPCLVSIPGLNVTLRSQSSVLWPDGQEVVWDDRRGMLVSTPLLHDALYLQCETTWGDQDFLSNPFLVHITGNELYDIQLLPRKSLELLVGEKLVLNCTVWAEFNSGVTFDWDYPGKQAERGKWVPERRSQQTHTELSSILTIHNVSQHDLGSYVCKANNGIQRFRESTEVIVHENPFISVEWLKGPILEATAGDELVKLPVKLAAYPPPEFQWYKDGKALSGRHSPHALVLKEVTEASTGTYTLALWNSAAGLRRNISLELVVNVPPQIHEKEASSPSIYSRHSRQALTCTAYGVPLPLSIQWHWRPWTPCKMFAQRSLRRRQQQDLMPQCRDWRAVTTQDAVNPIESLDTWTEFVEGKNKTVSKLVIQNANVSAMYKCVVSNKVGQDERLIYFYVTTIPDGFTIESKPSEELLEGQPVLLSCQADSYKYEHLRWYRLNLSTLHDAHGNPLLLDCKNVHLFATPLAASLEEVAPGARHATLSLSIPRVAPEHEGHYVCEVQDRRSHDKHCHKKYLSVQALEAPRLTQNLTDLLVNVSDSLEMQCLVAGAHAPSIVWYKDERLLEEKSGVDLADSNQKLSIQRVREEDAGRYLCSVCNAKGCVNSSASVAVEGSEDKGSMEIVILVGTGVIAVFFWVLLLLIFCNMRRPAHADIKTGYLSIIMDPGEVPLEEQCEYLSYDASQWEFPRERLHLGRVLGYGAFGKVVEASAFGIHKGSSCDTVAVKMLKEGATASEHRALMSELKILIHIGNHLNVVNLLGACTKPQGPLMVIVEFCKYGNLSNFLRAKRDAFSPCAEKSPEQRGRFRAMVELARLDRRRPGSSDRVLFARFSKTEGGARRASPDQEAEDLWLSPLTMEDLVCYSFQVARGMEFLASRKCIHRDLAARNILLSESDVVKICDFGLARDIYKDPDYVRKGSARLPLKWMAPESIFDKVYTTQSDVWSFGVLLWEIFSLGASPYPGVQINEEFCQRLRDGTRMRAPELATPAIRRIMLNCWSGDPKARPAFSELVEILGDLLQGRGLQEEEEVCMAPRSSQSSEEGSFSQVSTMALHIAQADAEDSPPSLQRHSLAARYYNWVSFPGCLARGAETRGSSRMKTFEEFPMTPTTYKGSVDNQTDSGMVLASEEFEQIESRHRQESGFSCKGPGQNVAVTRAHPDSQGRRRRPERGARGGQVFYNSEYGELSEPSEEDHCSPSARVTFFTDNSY
The target in assay [7] is VEGFR-1 (Homo sapiens, UniProt P17948). Conditions: same assays as VEGFR-3; disclosed in the '145 application; cited from earlier work.
Chain of VEGFR-1 (P17948 27-1338): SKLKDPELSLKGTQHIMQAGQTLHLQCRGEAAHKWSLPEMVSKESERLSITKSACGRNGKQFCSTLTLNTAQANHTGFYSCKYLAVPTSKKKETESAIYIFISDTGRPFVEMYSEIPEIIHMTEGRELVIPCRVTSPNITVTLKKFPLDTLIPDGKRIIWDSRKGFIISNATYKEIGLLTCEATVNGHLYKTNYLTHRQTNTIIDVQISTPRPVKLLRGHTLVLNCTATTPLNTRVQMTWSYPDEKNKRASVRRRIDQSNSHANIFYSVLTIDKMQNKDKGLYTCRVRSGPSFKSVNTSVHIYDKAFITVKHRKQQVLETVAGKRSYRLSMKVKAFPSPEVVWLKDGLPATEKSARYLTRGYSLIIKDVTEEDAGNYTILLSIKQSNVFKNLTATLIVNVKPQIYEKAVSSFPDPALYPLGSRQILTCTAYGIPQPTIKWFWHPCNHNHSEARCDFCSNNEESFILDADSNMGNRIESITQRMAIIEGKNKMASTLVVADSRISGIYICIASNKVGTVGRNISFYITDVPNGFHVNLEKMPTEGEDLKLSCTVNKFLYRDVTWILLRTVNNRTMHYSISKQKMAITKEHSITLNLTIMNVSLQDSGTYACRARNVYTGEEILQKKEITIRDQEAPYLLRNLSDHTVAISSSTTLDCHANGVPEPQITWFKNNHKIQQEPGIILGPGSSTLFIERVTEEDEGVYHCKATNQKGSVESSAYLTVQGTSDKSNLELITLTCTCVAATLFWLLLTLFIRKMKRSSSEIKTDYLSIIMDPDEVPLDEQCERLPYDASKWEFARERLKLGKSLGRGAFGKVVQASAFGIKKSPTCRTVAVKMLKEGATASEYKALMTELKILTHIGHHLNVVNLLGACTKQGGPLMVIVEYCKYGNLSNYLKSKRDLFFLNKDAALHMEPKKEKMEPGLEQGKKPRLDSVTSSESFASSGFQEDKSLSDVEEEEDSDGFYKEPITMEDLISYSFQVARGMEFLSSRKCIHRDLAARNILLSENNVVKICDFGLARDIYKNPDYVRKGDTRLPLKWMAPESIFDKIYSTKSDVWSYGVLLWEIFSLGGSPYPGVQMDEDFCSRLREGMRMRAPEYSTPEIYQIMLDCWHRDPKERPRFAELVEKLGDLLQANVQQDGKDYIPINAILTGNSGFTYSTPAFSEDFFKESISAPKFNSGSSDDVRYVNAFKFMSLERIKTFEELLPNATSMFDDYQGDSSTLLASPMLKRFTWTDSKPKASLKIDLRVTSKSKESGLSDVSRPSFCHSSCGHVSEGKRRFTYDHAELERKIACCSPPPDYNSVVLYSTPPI
[8] abbreviates: daily P.O. between 10th and 12th month after DEN, vs vehicle group.
[9] abbreviates: late treatment, 10th to 12th month after DEN, compared to same parameters at the 10th month.

pIC50: −log10 of the molar value.

As to `CNC(=O)c1cc(Oc2ccc(NC(=O)Nc3ccc(Cl)c(C(F)(F)F)c3)cc2)ccn1` [Sorafenib], the “OS (overall survival) gain over placebo” value in assay [1] is 2-3 months.
Consider `CCn1c(N)c(-c2ncc[nH]2)c(=O)c2ccc(C#C[C@@](C)(O)COC)nc21` [Example 1, 2-Amino-1-ethyl-7-((3R)-3-hydroxy-4-methoxy-3-methyl-but-1-ynyl)-3-(1H-imidazol-2-yl)-1H-[1,8]-naphthyridin-4-one], for which, in assay [2], the pIC50 is 7.82 to 8.00. In assay [3], the “selectivity for VEGFR-3 compared to other tested kinases, receptors, enzymes and ion channels” value is listed as “highly selective for VEGFR-3”. Moreover, in assay [4] (from 14 days post cell injection, Day 28 post cell injection, vs vehicle, p=0.001), the “decrease of mean weight of the liver lobe bearing the tumor” value came to 34%. The “reduction of tumor weight (normal liver lobe weight deduced)” value in assay [4] (Day 28, normal liver lobe deduced from lobe of tumor bearing mice) was 62%. In assay [5] (daily P.O. between 10th and 12th month after DEN), the total liver weight entry was “reduced and almost normalized”. Also, in assay [5] (setting [8]), the “reduction of number of tumors/liver” value amounted to 50% and the “reduction of total tumor volume” value was 85%. Also, in assay [5] (setting [9]), the “formation of new loci compared to the 10th month” value is “prevented the formation of new loci” and the “tumor development compared to the 10th month” value is listed as “completely blocked tumor development”. Also, the pIC50 in assay [6] is around 7.60. The pIC50 in assay [7] was below 6.00.
For the compound `CCn1c(N)c(-c2ncc[nH]2)c(=O)c2ccc(C#C[C@@](C)(O)CO)nc21` [Example 2, 2-Amino-7-((3R)3,4-dihydroxy-3-methyl-but-1-ynyl)-1-ethyl-3-(1H-imidazol-2-yl)-1,8-naphthyridin-4(1H)-one], the pIC50 in assay [6] was around 7.33.

Values taken from patent publication US9376432B2, “Use of VEGFR-3 inhibitors for treating hepatocellular carcinoma” (Sanofi, priority 2012, dated 2016).
